Laboratory results taken from patent publication US20040097408A1, “Compounds regulating cell proliferation and differentiation” (priority 2001, published 2004).

Experiments:
Assay in all cases: cell count proliferation assay
Parameters in all cases: key: +: A positive scoring in these Tables represent cells in which a 2-5 and a 10-40 fold reduction in the total number of cells relative to the control untreated cells was observed after 3 and 7 days of culture with F16, respectively
MCF-7 = format: cell-based; conditions: MCF-7, human breast; F16 3 μM, cells counted after 3 and 7 days
Text: (§1) The following panel of mouse tumor cell lines derived from Neu, Ras and Myc transgenic mice and panel of human cancer cell lines were used: a) Neu-initiated mouse tumor cell lines NF980, NF324-2A, NF324-1B, SMF, NAF, Neu4145, n-Neu, Ras-initiated mouse tumor cell lines SH1,1, AC236, AC711, AC816, ACp53^−#1, ACp53^−4782, AC222, AC99, AC260, ACp53^−#19, ACp53^−#16, AC/Balb6.6, AC/Balb14, AC/Balb12 and Myc-initiated mouse tumor cell lines 16MB9a, 13MA1a; and b) human breast tumor cell lines MDA-MB231, MDA-MB435, MDA-MB436, MDA-MB453, MDA-MB-468, SKBR-3, MCF-7, T47D, ZR75; human prostate cancer cell lines LNCaP, PC-3, DU145 and the human ovarian cancer cell line SKOV-3.
(§2) For each cell line, 10^5 cells were seeded in 4×6 well plates. Next day, F16 was added at 3 μM to the medium of 2 of the plates, while the other two were left untreated (control). Cells were counted 3 days and 7 days after initiation of treatment.
(§3) A positive scoring in these Tables represent cells in which a 2-5 and a 10-40 fold reduction in the total number of cells relative to the control untreated cells was observed after 3 and 7 days of culture with F16, respectively.

SKBR-3 = format: cell-based; conditions: SKBR-3, human breast; F16 3 μM, cells counted after 3 and 7 days
Text: as §1, §2, §3

ZR75 = format: cell-based; conditions: ZR75, human breast; F16 3 μM, cells counted after 3 and 7 days
Text: as §1, §2, §3

T47D = format: cell-based; conditions: human breast, F16 3 μM, cells counted after 3 and 7 days
Text: as §1, §2, §3

MDA-MB-468 = format: cell-based; conditions: MDA-MB-468, human breast; F16 3 μM, cells counted after 3 and 7 days
Text: as §1, §2, §3

SH1.1 = format: cell-based, mouse; conditions: SH1.1, Ras, breast; F16 3 μM, cells counted after 3 and 7 days
Text: as §1, §2, §3

NF980 = format: cell-based, mouse; conditions: NF980, Neu, breast; F16 3 μM, cells counted after 3 and 7 days
Text: as §1, §2, §3

NF324-2A = format: cell-based, mouse; conditions: Neu, breast, F16 3 μM, cells counted after 3 and 7 days
Text: as §1, §2, §3

n-Neu = format: cell-based, mouse; conditions: breast, F16 3 μM, cells counted after 3 and 7 days
Text: as §1, §2, §3

Neu4145 = format: cell-based, mouse; conditions: Neu4145, Neu, breast; F16 3 μM, cells counted after 3 and 7 days
Text: as §1, §2, §3

SMF = format: cell-based, mouse; conditions: Neu, breast, F16 3 μM, cells counted after 3 and 7 days
Text: as §1, §2, §3

NAF = format: cell-based, mouse; conditions: Neu, breast, F16 3 μM, cells counted after 3 and 7 days
Text: as §1, §2, §3

AC711 = format: cell-based, mouse; conditions: AC711, Ras, breast; F16 3 μM, cells counted after 3 and 7 days
Text: as §1, §2, §3

NF324-1B = format: cell-based, mouse; conditions: Neu, breast, F16 3 μM, cells counted after 3 and 7 days
Text: as §1, §2, §3

AC236 = format: cell-based, mouse; conditions: AC236, Ras, breast; F16 3 μM, cells counted after 3 and 7 days
Text: as §1, §2, §3

Measured: F16 response

C[n+]1ccc(/C=C/c2c[nH]c3ccccc23)cc1.[I-] [F16]
+: MCF-7 | SKBR-3 | ZR75 | T47D | MDA-MB-468 | SH1.1 | NF980 | NF324-2A | n-Neu | Neu4145 | SMF | NAF | AC711 | NF324-1B | AC236
